This passage reports Kd results from PubChem BioAssay AID1648 (Sanford-Burnham Center for Chemical Genomics, 2009).

The source made the active and inactive calls. The rule behind the calls is not given here.

Chain of Serine/threonine-protein kinase mTOR (Homo sapiens) (P42345 2015-2114): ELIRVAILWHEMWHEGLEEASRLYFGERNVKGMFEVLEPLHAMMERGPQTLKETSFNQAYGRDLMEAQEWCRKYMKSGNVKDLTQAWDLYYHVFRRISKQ

The assay concerns the target Serine/threonine-protein kinase mTOR (Homo sapiens) (UniProt P42345). Description: binders of mTOR FRB domain, biophysical, NMR (AID 1648). The note with it: NMR binding to FRB domain, chemical shift.
As a reminder, the Kd is the constant that tells how readily two partners part at equilibrium. For `O=C(NS(=O)(=O)c1ccccc1)c1ccccc1F`, the Kd is > 4 mM (inactive).
The figure for `CCOC(=O)c1cc(C)[nH]n1` is > 4 mM (inactive); for `Cc1nc2ccccc2c(=O)n1CCCO` it is > 4 mM (inactive); for `C[C@@H]1C(=O)O[C@H]2[C@H]1CC[C@@]1(C)C=CC(=O)[C@@]3(C)O[C@@]213` it is > 4 mM (inactive).
With `CSc1ccccc1NC(=O)c1ccncc1`, the Kd was > 4 mM (inactive).
Take `O=C(O)c1ccc(Oc2ccccc2)nc1`: the Kd was > 4 mM (inactive).
On to `Oc1ccccc1-c1cc(C(F)(F)F)[nH]n1`, for which the Kd is > 4 mM (inactive).
With `CC1(C)C(=O)[C@@H]2C[C@@]3(O)C4=CC(=O)O[C@@H](c5ccoc5)[C@]4(C)CCC3C(C)(C2=O)[C@H]1CC(=O)O` (some centres not stated), the Kd is > 4 mM (inactive).
Regarding `COc1ccc(S(=O)(=O)NCCO)cc1`, the Kd is > 4 mM (inactive).
`CCOC(=O)c1cnc2cc(C)nn2c1C`: the Kd is > 4 mM (inactive).
Regarding `CC(=O)N1CCc2ccccc2C1CC(=O)O` (configuration not stated), the Kd is > 4 mM (inactive).
The figure for `CC(=O)c1cccc(NC(=O)Nc2c(C)nn(C)c2C)c1` is > 4 mM (inactive); for `NS(=O)(=O)c1ccc(N=C2NC(=O)CS2)cc1` it is > 4 mM (inactive).
The figure for `O=C(Nc1cnc2ccccn2c1=O)c1ccc(F)cc1` is > 4 mM (inactive); for `COC(=O)c1noc(-c2ccc(OC)cc2)n1` it is > 4 mM (inactive).
Regarding `COc1cc2nc[nH]c(=O)c2cc1OC`, the Kd was > 4 mM (inactive).
Turning to `Cc1ccc2nc(SCC(=O)O)nc(C)c2c1`, the Kd is > 4 mM (inactive).
Regarding `CC(=O)Nc1ccc(S(=O)(=O)NC(N)=O)cc1`, the Kd is > 4 mM (inactive).
Next, `COc1ccc(-c2nnsc2N)cc1`: > 4 mM (inactive).
Turning to `O=C(CN1CCOCC1)Nc1nccs1`, the Kd is > 4 mM (inactive).
In the case of `O=C(c1ccccc1)N1CCN(c2ccccc2F)CC1`, the Kd is > 4 mM (inactive).
Turning to `O=C(O)CCCC(=O)Nc1nccs1`, the Kd was > 4 mM (inactive).
Regarding `Cc1cc(O)c(C=O)c(O)c1C(=O)O`, the Kd is > 4 mM (inactive).
In the case of `NCc1ccccc1N1CCCCC1`, the Kd was > 4 mM (inactive).
Next, `Cc1cc(=O)n2[nH]c(COc3ccccc3)nc2n1`: > 4 mM (inactive); `Cc1ccc(C(=O)N2CCC(C(N)=O)CC2)c(Cl)c1`: > 4 mM (inactive).
Regarding `O=C1CCC(C(=O)NCc2cccnc2)N1` (configuration not stated), the Kd was > 4 mM (inactive).
As for `Cc1cc(C)n(CC(=O)O)n1`, the Kd is > 4 mM (inactive).
For the molecule `CCOC(=O)c1c(C)cc(O)c(C=O)c1O`, the Kd was > 4 mM (inactive).
Consider `Cc1ccccc1-n1c(-c2ccncc2)n[nH]c1=S`, for which the Kd was > 4 mM (inactive).
Consider `O=C1CC(=O)N(Cc2ccco2)C(=S)N1`, for which the Kd was > 4 mM (inactive).
With `Cc1cc(=O)cc(C)n1-c1ccccc1N1CCOCC1`, the Kd was > 4 mM (inactive).
With `CC1(C)NC(=O)N(CN2CCOCC2)C1=O`, the Kd is > 4 mM (inactive).
For `O=c1[nH]c(=O)n(-c2ccc(F)cc2)c(O)c1/C=C1/C=CC=N1`, the Kd is > 4 mM (inactive).
As to `OCC1CCCCCN1` (configuration not stated), the Kd is > 4 mM (inactive).
In the case of `Cn1c(NCc2ccco2)nc2ccccc21`, the Kd was > 4 mM (inactive).
Next, `COc1ccc(C(C)=O)c(OC)c1`: > 4 mM (inactive); `Cn1c(CN)nc2ccccc21`: > 4 mM (inactive); `O=C1COc2ccc(C(=O)c3ccccc3)cc2CN1`: > 4 mM (inactive).
Turning to `O=c1cccc2n1CC1CC2CN2CCCC[C@@H]12` (some centres not stated), the Kd is > 4 mM (inactive).
For `Cc1cc(C(F)(F)F)nn1CC(N)=O`, the Kd is > 4 mM (inactive).
With `O=C(NCc1ccco1)c1ccc(=O)[nH]c1`, the Kd was > 4 mM (inactive).
Turning to `CC(=O)NC1(NC(C)=O)CCN(C)CC1`, the Kd is > 4 mM (inactive).
Take `CC1(C)Cn2c(nnc2-c2ccccc2)S1`: the Kd is > 4 mM (inactive).
Regarding `Cc1occc1C(=O)N1CCN(S(C)(=O)=O)CC1`, the Kd is > 4 mM (inactive).
Turning to `NC(=O)c1ccc(NC(=O)C2CC2)cc1`, the Kd was > 4 mM (inactive).
Next, `CSc1cc(C)[nH]c(=O)n1`: > 4 mM (inactive); `CC(=O)c1c(C)nc(-c2ccc(F)cc2)n1O`: > 4 mM (inactive).
As for `Cc1onc(-c2ccccc2)c1CO`, the Kd was > 4 mM (inactive).
As for `C=CC(C1=CC(=O)C(OC)=CC1=O)c1ccc(O)cc1` (configuration not stated), the Kd is > 4 mM (inactive).
In the case of `Nc1ncnc(Cl)c1[N+](=O)[O-]`, the Kd was > 4 mM (inactive).
Turning to `O=[n+]1c(CO)c(CO)n([O-])c2ccccc21`, the Kd is > 4 mM (inactive).
In the case of `Cc1cc(C)n(-c2nncn2N)n1`, the Kd is > 4 mM (inactive).
In the case of `O=c1c(O)c(-c2ccc(O)cc2O)oc2cc(O)cc(O)c12`, the Kd was > 4 mM (inactive).
`CNC[C@@H](O)c1ccc(O)c(O)c1`: the Kd was > 4 mM (inactive).
As to `S=c1[nH]nc(-c2cccnc2)n1Cc1ccccc1`, the Kd was > 4 mM (inactive).
With `Cc1cc(C)n(/N=C\c2cccs2)c(=O)c1C(N)=O`, the Kd was > 4 mM (inactive).
Next, `Nc1ccc(N2CCOCC2)c(Cl)c1`: > 4 mM (inactive); `O=C1Nc2ccc(S(=O)(=O)NCCO)c3cccc1c23`: > 4 mM (inactive).
Regarding `CC1(C)CC(NC(=O)/C=C/C(=O)O)CC(C)(C)N1`, the Kd is > 4 mM (inactive).
Turning to `CC(C)(O)CC[C@@H](O)[C@](C)(O)C1CC[C@@]2(O)C3=CC(=O)C4C[C@@H](O)[C@@H](O)C[C@]4(C)C3CC[C@]12C` (some centres not stated), the Kd is > 4 mM (inactive).
Take `NS(=O)(=O)c1ccc(F)cc1`: the Kd was > 4 mM (inactive).
`Cn1c(=O)n(CC(=O)N2CCOCC2)c2ccccc21`: the Kd was > 4 mM (inactive).
Next, `CCC(=O)n1nc(-c2ccco2)nc1N`: > 4 mM (inactive).
Consider `c1cnc(N2CCNCC2)nc1`, for which the Kd was > 4 mM (inactive).
For `COC(=O)C[C@@H]1C2(C)C(=O)[C@@H](CC3=C4CC(O)O[C@@H](c5ccoc5)[C@]4(C)CCC32)[C@H](O)C1(C)C` (some centres not stated), the Kd was > 4 mM (inactive).
With `Cc1ccccc1N1CCN(C(=O)C2CCCCC2)CC1`, the Kd was > 4 mM (inactive).
Next, `COc1c2c(cc3occ(-c4ccc5c(c4)OCO5)c(=O)c13)OC(C)(C)C=C2`: > 4 mM (inactive).
Regarding `COc1ccccc1NC(=O)NC(N)=O`, the Kd was > 4 mM (inactive).
For the molecule `COc1ccc(C)cc1S(=O)(=O)Nc1ccccc1C`, the Kd is > 4 mM (inactive).
With `CCSc1nnc(-c2ccccc2N)c(=O)[nH]1`, the Kd was > 4 mM (inactive).
For the molecule `O=C(NC1CCS(=O)(=O)C1)c1ccccc1` (configuration not stated), the Kd was > 4 mM (inactive).
Next, `O=C(CSc1nnc2ccccn12)N1CCOCC1`: > 4 mM (inactive).
The figure for `CCCNC(=O)c1cnc2n(c1=O)CCS2` is > 4 mM (inactive).
For `O=C(Nc1cnccn1)c1cccs1`, the Kd was > 4 mM (inactive).
Turning to `CNC(=O)C1CC(=O)N(c2ccc(O)cc2)C1` (configuration not stated), the Kd was > 4 mM (inactive).
Take `O=C1C2C3C=CC(C3)C2C(=O)N1c1nccs1` (configuration not stated): the Kd is > 4 mM (inactive).
Consider `C(=N\c1nccs1)/c1cccnc1`, for which the Kd is > 4 mM (inactive).
With `CCn1cnc2cc([N+](=O)[O-])ccc2c1=O`, the Kd is > 4 mM (inactive).
In the case of `CSc1ccccc1NC(=O)c1c(C)noc1C`, the Kd was > 4 mM (inactive).
On to `O=c1[nH]nnc2sc3c(c12)CCCC3`, for which the Kd is > 4 mM (inactive).
The figure for `CCOc1ccc2nc(NS(C)(=O)=O)sc2c1` is > 4 mM (inactive); for `COC1=CC(=O)C(O)=C/C1=C\C=C\c1ccccc1` it is > 4 mM (inactive); for `CNc1nnc(Cc2csc(N)n2)s1` it is > 4 mM (inactive).
Consider `COC(=O)CC1C(C)(C)C(OC(C)=O)[C@@H]2[C@@H](OC(C)=O)[C@]34O[C@@]2(O)[C@]1(C)C3CC[C@]1(C)C4=CC(=O)O[C@H]1c1ccoc1` (some centres not stated), for which the Kd is > 4 mM (inactive).
`COc1ccc2c(c1)OC/C(=C/c1ccc(OC)c(OC)c1)C2=O`: the Kd is > 4 mM (inactive).
Turning to `COC(=O)Nc1nnc(-c2ccncc2)s1`, the Kd was > 4 mM (inactive).
With `COc1cc(-c2coc3cc(OC)c(OC)c(OC)c3c2=O)cc(OC)c1OC`, the Kd is > 4 mM (inactive).
In the case of `CC1(C)NC(=O)N(CCOc2ccc3c(c2)CCC3)C1=O`, the Kd was > 4 mM (inactive).
The figure for `NC(=O)c1cc2c(n(-c3ccccc3)c1=O)CCCC2=O` is > 4 mM (inactive); for `CCN(CC)c1nc2n(c(=O)n1)CCO2` it is > 4 mM (inactive); for `CCC(C)C(=O)O[C@H]1[C@H](O)C2C(CN3CC(C)CCC3[C@@]2(C)O)C2C[C@]34O[C@]5(O)C(OC(=O)C(C)(O)C(C)O)CC[C@@]3(C)C5C(OC(C)=O)[C@@H](OC(C)=O)C4[C@@]21O` (some centres not stated) it is > 4 mM (inactive).
`O=C1C=C(Nc2ccccc2O)c2ccccc2C1=O`: the Kd was > 4 mM (inactive).
As to `NCc1nnnn1-c1ccccc1`, the Kd was > 4 mM (inactive).
As for `Cc1nn(C)c(N2CCOCC2)c1N`, the Kd is > 4 mM (inactive).
Next, `NC(=O)NCCCC(N)C(=O)O` (configuration not stated): > 4 mM (inactive); `Cc1nc(NC(=O)c2cccnc2)ccc1Br`: > 4 mM (inactive); `S=C1NC(=S)NC(c2ccc3c(c2)OCO3)N1`: > 4 mM (inactive).
With `CC(=O)Nc1cc(S(=O)(=O)N(C)C)ccc1Cl`, the Kd is > 4 mM (inactive).
For the molecule `Cc1nn(-c2ccccc2)nc1C(N)=O`, the Kd was > 4 mM (inactive).
Regarding `C[C@]12CCC3C(CC[C@]4(O)C[C@@H](O)CC[C@]34C=O)[C@@]1(O)CCC2C1=CC(=O)OC1` (some centres not stated), the Kd is > 4 mM (inactive).
Regarding `CC1=NN(c2ccc(N)cc2)C(=O)C1`, the Kd was > 4 mM (inactive).
